The text below walks through data of PMC10714399, “Open Source Antibiotics: Simple Diarylimidazoles Are Potent against Methicillin-Resistant Staphylococcus aureus” (ACS Infectious Diseases, 2023).

Data set [1] relates to Enterococcus faecalis ATCC 51299 (vanA-positive; vancomycin-resistant). Briefly: In vitro antibacterial activity, MIC (UCL), VRE. The data set is classed as cell-based. As to conditions: read-out: VRE MIC (UCL). An outline of the steps:
(§1)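 Broth microdilution MIC in isosensitest broth; inoculum from overnight tryptone soya agar culture suspended in PBS to A600 0.1 (~1 × 10^8 CFU/mL), then diluted 1:100. Compounds tested as 2-fold series from 32 to 0.03 μg/mL, DMSO at most 2%; vancomycin as quality control.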

Data set [2] in a line: Human plasma protein binding (PPB). Type of data set: in vitro ADME. As to conditions: human, plasma, human plasma, NEU; read-out: Human PPB (NEU) (converted).
Data set [3] concerns MRC-5SV2 (human lung fibroblast cell line). In words: Toxicity against MRC-5SV2. The data set is classed as cell-based. As to conditions: MRC5 cells. As to the method: (§2) ADME and toxicity for compounds were measured according to procedures outlined in the manuscript submitted in parallel to this one;2 other procedures were used for those compounds analysed by Monash University (in vitro ADME) or UCL (toxicity), both described in the main

In data set [4] the test system is PMM (primary mouse macrophages). In words: Toxicity against PMM. The data set is classed as cell-based. As to conditions: PMM. As to the method:
as §2

A further data set in a line: Aqueous solubility. The data set is classed as physicochemical. Conditions: NEU; for solubility: thermodynamic from solid, read-out: Aqueous Solubility (NEU).
Another data set relates to U2OS. Briefly: Toxicity against U2OS. Type of data set: cell-based. As to conditions: U2OS cells. The source says: Supplement id3c00286_si_002.xlsx, sheet "Series 2 Data" | column: U2OS TC50 (uM)
The test system of a further data set is THP1. Briefly: Toxicity against THP1. Type of data set: cell-based. Conditions: THP1 cells. The source says: Supplement id3c00286_si_002.xlsx, sheet "Series 2 Data" | column: THP1 TC50 (uM)
A short description of data set [5]: Human liver microsome intrinsic clearance. Type of data set: in vitro ADME. As to conditions: human liver microsomes, NEU; for microsomal CLint: read-out: HLM CLint (NEU). (In general: Liver microsomes are vesicles of endoplasmic reticulum, rich in cytochrome P450 enzymes.)
Data set [6] deals with Staphylococcus aureus NCTC 13373 (mecA-positive; methicillin-resistant). Briefly: In vitro antibacterial activity, MIC (UCL School of Pharmacy assay), MRSA. Type of data set: cell-based. Conditions: Staphylococcus aureus, UCL; read-out: MRSA MIC (UCL). An outline of the steps: as §1
A short description of data set [7]: Rat hepatocyte intrinsic clearance. Type of data set: in vitro ADME. Conditions: rat hepatocytes, NEU; for hepatocyte CLint: read-out: Rat Hep CLint (NEU).
A short description of a further data set: LogD7.4 (Chrom Log D). The data set is classed as physicochemical. Conditions: chromatographic system (Chrom Log D); pH 7.4, NEU; read-out: LogD 7.4 (NEU).

In brackets after ≈: the same amount, converted by molar mass.

For orientation: MIC means the smallest concentration in the dilution series that meets the test's criterion for growth inhibition. As a reminder, the solubility is the dissolved amount per volume that the medium holds. With `COc1ccn2c(-c3ccc(F)cc3)c(-c3ccccn3)nc2c1` [OSA_000858], the MIC in data set [1] was > 32 µg/mL; in data set [6], 16 µg/mL (≈ 50.1 µM). Further, the fraction unbound in [2] was 0.054. Further, the “MRC5 TC50” value in [3] was found to be 3.62 µM. In addition, the “PMM TC50” value in data set [4] worked out at 8 µM. Besides, the solubility in “Aqueous solubility” stood at 85 µM (≈ 27.1 µg/mL). In addition, in the data set on U2OS, the “U2OS TC50” value was found to be 1.28 µM. The “THP1 TC50” value with THP1 is 7.63 µM. Further, the microsomal CLint in [5] is > 300 µL/min/mg. Besides, the hepatocyte CLint in [7] was 25.1 µL/min/1e6 cells. In addition, the chromatographic logD in the data set “LogD7.4 (Chrom Log D)” is 2.9.

For `Fc1ccc(-c2c(-c3ccccn3)nc3ccccn23)cc1` [OSA_000859], the MIC in data set [1] was > 32 µg/mL; in data set [6], 32 µg/mL (≈ 111 µM). Also, in [3], the “MRC5 TC50” value was 10.3 µM. Also, the “PMM TC50” value in [4] was 32 µM. Further, the “Aqueous Solubility (NEU)” value in the data set “Aqueous solubility” was found to be 178 µM. In addition, in the data set on U2OS, the “U2OS TC50” value was found to be 4.54 µM. Moreover, the “THP1 TC50” value in the data set on THP1 came to 17 µM. The “HLM CLint (NEU)” value in data set [5] was found to be 168 uL/min/mg protein. Moreover, the “Rat Hep CLint (NEU)” value in data set [7] was determined as 49.8 uL/min/10x6 cells. In addition, the chromatographic logD in the data set “LogD7.4 (Chrom Log D)” is 3.

As to `COc1ccn2c(-c3ccccc3)c(-c3ccccn3)nc2c1` [OSA_000860], the results for the MIC in [1] and in data set [6] were 32 µg/mL (≈ 106 µM) and 8 µg/mL (≈ 26.5 µM), respectively. The fraction unbound in [2] was 0.028. Further, the “MRC5 TC50” value in [3] was found to be 3.92 µM. Besides, the “PMM TC50” value in data set [4] is 8 µM. The solubility in the data set “Aqueous solubility” was found to be 79 µM (≈ 23.8 µg/mL). Moreover, in the data set on U2OS, the “U2OS TC50” value was found to be 0.73 µM. The “THP1 TC50” value in the data set on THP1 is 5.01 µM. In addition, the microsomal CLint in data set [5] turned out to be 224 µL/min/mg. Further, the hepatocyte CLint in [7] amounted to 23.9 µL/min/1e6 cells. Besides, the chromatographic logD in “LogD7.4 (Chrom Log D)” amounted to 3.1.
